{"source": "patent US6338847B1", "about": "“Compositions and methods to disinfect contact lenses” (Allergan, priority 1993, dated 2002)", "origin": "cited, not measured here", "molecules": {"B1": {"name": "lysozyme (protein, UniProt P61626 19-148, looked up)", "Lysozyme C": "KVFERCELARTLKRLGMDGYRGISLANWMCLAKWESGYNTRATNYNAGDRSTDYGIFQINSRYWCNDGKTPGAVNACHLSCSALLQDNIADAVACAKRVVRDPQGIRAWVAWRNRCQNRDVRQYVQGCGV", "notes": "cellulose and/or chitin decomposing enzyme component; a primary tear protein"}}, "tested_on": "cyst form of acanthamoeba", "data": [{"molecule": "OO", "note": "[hydrogen peroxide]", "values": [{"measurement": "survival of cysts exposed to hydrogen peroxide", "setting": "exposed for two hours", "value": "survived after two weeks"}]}, {"molecule": "B1", "values": [{"measurement": "time to killing all the cysts", "setting": "lysozyme included in the hydrogen peroxide solution", "value": "≤ 30", "unit": "min"}]}]}
